Assay: QSRR estimation of CHIn+Fbt and CHIbt from LC retention times
Format: physicochemical
Details: predicted (QSRR, equation 13); parent-drug label = average for that drug

CHIbt, aromatic oxidation (w/o HB): -16.4
CHIbt, aromatic oxidation with HB: -2.9
Structure (SMILES): CC(C)c1c(C(=O)Nc2ccccc2)c(-c2ccccc2)c(-c2ccc(F)cc2)n1CC[C@@H](O)C[C@@H](O)CC(=O)O [atorvastatin]

— article PMC6350196 (Drug Metabolism Letters, 2018)
